Some test systems named below: M14; HCT-116; ACHN; OVCAR-3; KM12; NCI-H226; SK-OV-3; CAKI-1; SK-MEL-2; SN12C; MOLT-4; CCRF-CEM; SK-MEL-5; UACC-257; 786-0; SF-295; SR.
What all share (assay): NCI anticancer screen, dose series, 48 h

Consider 13 molecules from ChEMBL document CHEMBL1201862, “PubChem BioAssay data set” (2004).

Each structure is given as a SMILES string.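 Values below derive from 48-hour exposures of cells grown in 96-well plates, with endpoints linearly interpolated between the two concentrations bracketing the appropriate inhibition level. GI50 = concentration required for 50% inhibition of growth.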 Active and inactive are the calls of the source. Cut-off read from the data, not from the text of the source: active = GI50 up to about 1.1 µM and inactive = higher.

With `Cc1ccc(NC(=O)c2nc(S)nc(N)c2-c2ccccc2C)cc1C`, the GI50 in the test on M14, in the test with HCT-116, with ACHN, in the test with OVCAR-3, with KM12 and with NCI-H226 was > 100 µM (inactive) throughout. In addition, the GI50 with SK-OV-3, with CAKI-1, in the test on SK-MEL-2, in the test on SN12C, in the test with MOLT-4 and in the test with CCRF-CEM was > 100 µM (inactive) in each case. Besides, the GI50 with SK-MEL-5, with UACC-257 and with 786-0 was > 100 µM (inactive) throughout.

For `Cn1c(=O)c(C2c3ccccc3Oc3c2c(=O)n(C)c2ccccc32)c(O)c2ccccc21` (stereo not given), the GI50 was 54.5 µM (inactive) in the test with SF-295; 60 µM (inactive) in the test on M14; 43.2 µM (inactive) in the test on HCT-116; 39.8 µM (inactive) with ACHN; 52 µM (inactive) in the test on OVCAR-3; 69.8 µM (inactive) with KM12. Also, the GI50 in the test with SR is 42.1 µM (inactive); in the test on NCI-H226, 46 µM (inactive); in the test on SK-OV-3, 63.8 µM (inactive); in the test with CAKI-1 it was 46.9 µM (inactive); in the test with SK-MEL-2, 61.7 µM (inactive); in the test with SN12C, 46.7 µM (inactive). Also, the GI50 is 39.4 µM (inactive) in the test with MOLT-4, > 100 µM (inactive) with SK-MEL-5, 24.1 µM (inactive) with UACC-257 and 27.2 µM (inactive) in the test on 786-0.

On to `CC(O)(c1ccc(OCCC[N+](C)(C)C)cc1)C(C)(O)c1ccc(OCCC[N+](C)(C)C)cc1` (stereo not given), for which the GI50 in the test on SF-295, in the test on M14, in the test with HCT-116, in the test with ACHN, with OVCAR-3 and in the test with KM12 was > 100 µM (inactive) each time. For the same molecule, the GI50 in the test on NCI-H226, in the test on SK-OV-3, with CAKI-1, in the test on SK-MEL-2, with SN12C and in the test on CCRF-CEM was > 100 µM (inactive) throughout. Besides, the GI50 with UACC-257 and with 786-0 was > 100 µM (inactive) each time.

For `COc1cccc2c1C(=O)c1c(O)c3c(c(O)c1C2=O)C[C@@](O)(C(=O)CO)CC3OC1CC(N(C)CCOCC(OC(C)=O)OC(C)=O)C(O)C(C)O1` (stereo not given in full), the GI50 in the test on SF-295, in the test on M14, in the test on ACHN, in the test with OVCAR-3, in the test on KM12 and in the test with NCI-H226 was > 0.01 µM (active) each time. The GI50 in the test with SK-OV-3, in the test on CAKI-1, with SK-MEL-2, with SN12C, in the test on MOLT-4 and with CCRF-CEM was > 0.01 µM (active) in each case. The GI50 in the test with SK-MEL-5, with UACC-257 and in the test on 786-0 was > 0.01 µM (active) throughout.

`CC1CCC23COC(=O)C2C(O)CCC3C1(C)CC(O)c1ccoc1` (stereo not given): the GI50 with SF-295, in the test with M14, in the test with HCT-116, with ACHN, with OVCAR-3 and in the test with KM12 was > 100 µM (inactive) throughout. Further, the GI50 in the test on NCI-H226, in the test with SK-OV-3, in the test with SK-MEL-2, in the test on SN12C, with MOLT-4 and in the test on CCRF-CEM was > 100 µM (inactive) in each case. Besides, the GI50 in the test with SK-MEL-5, in the test with UACC-257 and in the test on 786-0 was > 100 µM (inactive) in each case.

For `Nc1nc(N)c(N=O)c(Nc2ccc(I)cc2)n1`, the GI50 in the test with SF-295 is 28.6 µM (inactive); in the test on M14 it was 12.4 µM (inactive); in the test with HCT-116, 14.3 µM (inactive); in the test with ACHN it was 24 µM (inactive); in the test with OVCAR-3 it was 13.2 µM (inactive); in the test on KM12, 18.5 µM (inactive). The GI50 with SR was 10.8 µM (inactive); in the test on SK-OV-3, 5.33 µM (inactive); in the test on SK-MEL-2, 15.3 µM (inactive); with SN12C, 10.6 µM (inactive); in the test on MOLT-4, 3.98 µM (inactive); in the test on CCRF-CEM, 13.8 µM (inactive). Also, the GI50 with SK-MEL-5 is 13.5 µM (inactive); in the test with UACC-257, 19.5 µM (inactive); with 786-0, 25.5 µM (inactive).

On to `CC1CCCC(C(=O)/C(=C/c2cccc(Cl)c2)C(=O)C(=O)O)C1` (stereo not given), for which the GI50 in the test on SF-295 is 50.4 µM (inactive); in the test with M14, 29.7 µM (inactive); in the test on HCT-116, 13.8 µM (inactive); in the test on ACHN it was 39.4 µM (inactive); in the test on OVCAR-3 it was 24.7 µM (inactive); in the test with KM12 it was 15.6 µM (inactive). The GI50 in the test with NCI-H226 was > 100 µM (inactive); in the test on SK-OV-3 it was 81.5 µM (inactive); with CAKI-1, 33.3 µM (inactive); in the test with SN12C, 72.1 µM (inactive); in the test with MOLT-4 it was 19 µM (inactive); with CCRF-CEM, 19.3 µM (inactive). In addition, the GI50 in the test on SK-MEL-5 is 68.2 µM (inactive); in the test on UACC-257, 59.8 µM (inactive); in the test on 786-0, 17.9 µM (inactive).

Take `Cc1nc(=O)n2c(C)n[nH]c2c1C(=O)Nc1cc(Cl)cc(Cl)c1`: the GI50 was 31.4 µM (inactive) in the test on SF-295; 35.6 µM (inactive) with M14; 27.5 µM (inactive) with HCT-116; 20 µM (inactive) in the test with ACHN; 14.2 µM (inactive) with OVCAR-3; 31.9 µM (inactive) with KM12. Further, the GI50 is 19.9 µM (inactive) with SR; 24.8 µM (inactive) with NCI-H226; 29 µM (inactive) in the test on SK-OV-3; 36.9 µM (inactive) in the test on CAKI-1; 15.9 µM (inactive) in the test with SN12C; 26.9 µM (inactive) in the test with MOLT-4. In addition, the GI50 in the test on CCRF-CEM is 20.2 µM (inactive); in the test with SK-MEL-5, 16.1 µM (inactive); in the test on 786-0 it was 28.4 µM (inactive).

On to `Cc1ccc(NC(=O)CC2SC(Nc3cccc(Cl)c3C)=NC2=O)cc1` (stereo not given), for which the GI50 was 39.6 µM (inactive) in the test on SF-295; 38.8 µM (inactive) in the test on M14; 41 µM (inactive) in the test on ACHN; 23 µM (inactive) with OVCAR-3; 40.9 µM (inactive) with KM12; > 100 µM (inactive) in the test on SK-OV-3. For the same molecule, the GI50 in the test on CAKI-1 is 71.4 µM (inactive); in the test with SK-MEL-2 it was 44.6 µM (inactive); in the test with SN12C it was 50.9 µM (inactive); in the test with MOLT-4, 33 µM (inactive); with CCRF-CEM, 32.1 µM (inactive); in the test on SK-MEL-5, 29.6 µM (inactive). The values for the GI50 with UACC-257 and in the test on 786-0 were 48 µM (inactive) and > 100 µM (inactive), respectively.

In the case of `COC(=O)C1=C(CO)C2C=CC1C2` (stereo not given), the GI50 in the test on SF-295, in the test on M14, in the test on HCT-116, in the test on ACHN, in the test with OVCAR-3 and with KM12 was > 100 µM (inactive) throughout. Further, the GI50 with NCI-H226, with SK-OV-3, in the test on CAKI-1, in the test on SK-MEL-2, with SN12C and in the test on MOLT-4 was > 100 µM (inactive) throughout. Also, the GI50 in the test on CCRF-CEM, in the test on SK-MEL-5, in the test on UACC-257 and in the test on 786-0 was > 100 µM (inactive) each time.

Regarding `NC(CCSCC(F)(F)F)C(=O)O` (stereo not given), the GI50 in the test on SF-295, in the test on M14, in the test with HCT-116, with ACHN, with OVCAR-3 and in the test on KM12 was > 100 µM (inactive) throughout. Further, the GI50 in the test with SR, in the test on NCI-H226, in the test on CAKI-1, with SN12C, with MOLT-4 and with CCRF-CEM was > 100 µM (inactive) each time. The GI50 in the test with SK-MEL-5, with UACC-257 and in the test with 786-0 was > 100 µM (inactive) each time.

As for `OC1(c2ccccc2)OC(C#Cc2ccccc2)(c2ccccc2)c2ccccc21` (stereo not given), the GI50 in the test on SF-295 is 5.57 µM (inactive); with M14, 2.21 µM (inactive); in the test with HCT-116, 1.7 µM (inactive); in the test on OVCAR-3, 2.31 µM (inactive); with KM12 it was 1.59 µM (inactive); in the test on SR, 2.5 µM (inactive). For the same molecule, the GI50 is 2.62 µM (inactive) in the test with NCI-H226; 1.46 µM (inactive) in the test on SK-OV-3; 3.85 µM (inactive) in the test with CAKI-1; 3.25 µM (inactive) in the test on SN12C; 2.08 µM (inactive) in the test on MOLT-4; 2.73 µM (inactive) with CCRF-CEM. The GI50 in the test with SK-MEL-5 is 7.89 µM (inactive); with UACC-257, 8.32 µM (inactive); in the test on 786-0, 3.73 µM (inactive).

Consider `CCCCCCCCCc1cc(=O)c2ccc(OCc3ccccc3)cc2o1`, for which the GI50 with SF-295 is > 100 µM (inactive); in the test on M14, > 100 µM (inactive); with HCT-116 it was 71.3 µM (inactive); in the test with ACHN, > 100 µM (inactive); in the test with OVCAR-3 it was > 100 µM (inactive); in the test on KM12, > 100 µM (inactive). The GI50 was 34.7 µM (inactive) with NCI-H226; > 100 µM (inactive) with SK-OV-3; 2.92 µM (inactive) with CAKI-1; 43.1 µM (inactive) in the test on SK-MEL-2; > 100 µM (inactive) in the test on SN12C; 65.2 µM (inactive) in the test on CCRF-CEM. Besides, the values for the GI50 in the test on SK-MEL-5, in the test on UACC-257 and in the test on 786-0 were 97.9 µM (inactive), > 100 µM (inactive) and > 100 µM (inactive), respectively.
